In patent US20060193796A1, “Method for refining ultraviolet absorbent, ultraviolet absorbent and cosmetic material” (priority 2003, published 2006):

Columns and labels:
[1] = Odor evaluation for ultraviolet absorbers after a time has elapsed (storage for 3 weeks); assay type: physicochemical; details: 10 ranks: 1, no odor, 10, very intense odor; for Odor evaluation for ultraviolet absorber after a time has elapsed: In the dark: stored in the dark at 50° C. for 3 weeks; for Odor evaluation for ultraviolet absorber after a time has elapsed: In the light: stored in the light at 20° C., 1000 lux for 3 weeks
Description: Odor Evaluation for Ultraviolet Absorbers After a Time Has Elapsed 100 ml of each ultraviolet absorber was filled into two different 200-ml sample bottles, and one bottle was stored in the dark (at 50° C.) and the other in the light (at 20° C., 1000 lux) for 3 weeks. The intensity of overall odor and that of irritating odor were evaluated using one of 10 ranks: 1, no odor; . . .; 10, very intense odor and scored.

[2] = Hue evaluation for ultraviolet absorbers, Hazen color (APHA), Lovibond Nessleriser 2150; assay type: physicochemical
Description: Hue Evaluation for Ultraviolet Absorbers
Hazen color (APHA) was measured using Lovibond Nessleriser 2150.

| SMILES | Odor evaluation for ultraviolet absorber after a time has elapsed: In the dark [1] | Odor evaluation for ultraviolet absorber after a time has elapsed: In the light [1] | Evaluation for ultraviolet absorber: Hue [2] [APHA] |
| --- | --- | --- | --- |
| CCCCC(CC)COC(=O)C=Cc1ccc(OC)cc1 (stereo not drawn) [compound 1, 2-ethylhexyl p-methoxycinnamate] | 5 | 4 | 40 |
| CCCCC(CC)COC(=O)C=Cc1ccc(OC)cc1 (stereo not drawn) [Example 4, 2-ethylhexyl p-methoxycinnamate] | 2 | 1 | 10 |
| CCCCC(CC)COC(=O)C=Cc1ccc(OC)cc1 (stereo not drawn) [compound 6, 2-ethylhexyl p-methoxycinnamate] | 3 | 2 | 20 |
| CCCCC(CC)COC(=O)C=Cc1ccc(OC)cc1 (stereo not drawn) [Example 3, 2-ethylhexyl p-methoxycinnamate] | 2 | 1 | 10 |
| CCCCC(CC)COC(=O)C=Cc1ccc(OC)cc1 (stereo not drawn) [compound 3, 2-ethylhexyl p-methoxycinnamate] | 4 | 4 | 40 |
| CCCCC(CC)COC(=O)C=Cc1ccc(OC)cc1 (stereo not drawn) [compound 7, 2-ethylhexyl p-methoxycinnamate] | 3 | 2 | 10 |
| CCCCC(CC)COC(=O)C=Cc1ccc(OC)cc1 (stereo not drawn) [compound 4, 2-ethylhexyl p-methoxycinnamate] | 4 | 3 | 10 |
| CCCCC(CC)COC(=O)C=Cc1ccc(OC)cc1 (stereo not drawn) [compound 8, 2-ethylhexyl p-methoxycinnamate] | 3 | 2 | 20 |
| CCCCC(CC)COC(=O)C=Cc1ccc(OC)cc1 (stereo not drawn) [Example 2, 2-ethylhexyl p-methoxycinnamate] | 2 | 1 | 10 |
| CCCCC(CC)COC(=O)C=Cc1ccc(OC)cc1 (stereo not drawn) [Example 1, 2-ethylhexyl p-methoxycinnamate] | 2 | 1 | 10 |
| CCCCC(CC)COC(=O)C=Cc1ccc(OC)cc1 (stereo not drawn) [compound 2, 2-ethylhexyl p-methoxycinnamate] | 5 | 4 | 10 |
| CCCCC(CC)COC(=O)C=Cc1ccc(OC)cc1 (stereo not drawn) [compound 9, 2-ethylhexyl p-methoxycinnamate] | 2 | 3 | 10 |
| CCCCC(CC)COC(=O)C=Cc1ccc(OC)cc1 (stereo not drawn) [compound 5, 2-ethylhexyl p-methoxycinnamate] | 3 | 3 | 20 |
